Measurements: article PMC10489817, “2-Alkyl-Substituted-4-Amino-Thieno[2,3-d]Pyrimidines: Anti-Proliferative Properties to In Vitro Breast Cancer Models” (Molecules, 2023)

How the values were obtained:
BALB 3T3 cells [1] = assay: in vitro 3T3 NRU test, cytotoxicity; assay type: cell-based, mouse; settings: for IC50: BALB 3T3, value in brackets
Protocol: (§1) Compounds 2–5 were studied for cytotoxicity/phototoxicity by an in vitro 3T3 NRU-test. The cell line BALB 3T3, clone A31 (mouse embryo fibroblasts), was incubated with the test compounds at a concentration from 15 to 4000 µg/mL for 24 h at 37 °C, 5% CO2, and 95% humidity. The cytotoxicity and phototoxicity were expressed in percentages relative to the negative control determined. […] Based on the dose–response curves, the CC50/PC50 values (50% cytotoxic/phototoxic concentration) were calculated by nonlinear regression analysis (Table 1). The CC50 values can be used to calculate the PIF (photo-irritancy factor) for each test compound according to the following formula: PIF = CC50/PC50.
(§2) BALB/3T3 cells were cultured in 75 cm^2 tissue culture flasks in DMEM, 10% FBS, 2 mM glutamine, and antibiotics (penicillin 100 U/mL and streptomycin-100 µg/mL) at 37 °C, 5% CO2, and 90% relative humidity. Cytotoxicity/phototoxicity was assessed by a validated BALB/3T3 clone A31 neutral red uptake assay (3T3 NRU test). Briefly, cells were plated in a 96-well microtiter plate at a density of 1 × 10^4 cells/100 µL/well and incubated for 24 h. A wide concentration range was applied for the test compounds. For the phototoxicity tests, 96-well plates were irradiated with a dose of 2.4 J/cm^2, and the cells were incubated for an additional 24 h. After treatment with neutral red medium, washing, and treatment with the ethanol/acetic acid solution, the absorption was measured on a TECAN microplate reader (TECAN, Grödig, Austria) at a wavelength of 540 nm. The light source which we used was a light-emitting diode (LED) matrix—an artificial solar light simulator Helios-iO, model LE-9ND55-H—5500K (SERIC Ltd., Tokyo, Japan).
Cytotoxicity/phototoxicity were expressed as CC50/PC50 values (concentrations required for 50% cytotoxicity/phototoxicity), calculated using non-linear regression analysis (GraphPad Software GraphPad Prism 9.5.1, San Diego, CA, USA). The CC50 values were used to calculate the PIF (photo-irritancy factor) for each test substance, according to the following formula: […]

BALB 3T3 cells [2] = assay: in vitro 3T3 NRU test, phototoxicity; assay type: cell-based, mouse; settings: for IC50: Mus musculus, light or radiation study; for PIF (photo-irritancy factor): PIF = CC50/PC50, <2 not phototoxic
Protocol: as §1, §2
Cytotoxicity/phototoxicity were expressed as CC50/PC50 values (concentrations required for 50% cytotoxicity/phototoxicity), calculated using non-linear regression analysis (GraphPad Software GraphPad Prism 9.5.1, San Diego, CA, USA). The CC50 values were used to calculate the PIF (photo-irritancy factor) for each test substance, according to the following formula:
PIF = Cytotoxicity (CC50)/Phototoxicity (PC50)

MCF-10A = assay: Cell cycle analysis by propidium iodide staining, MCF-10A; assay type: cell-based, human; settings: for change of %G1 vs control, MCF-10A / change of %G2 vs control, MCF-10A / change of %S vs control, MCF-10A: control = 100%, 24 h; for %G1, MCF-10A / %G2, MCF-10A / %S, MCF-10A: treated at IC50, 24 h
Protocol: Our study continued with the examination of the effect of the newly synthesized compounds’ IC50 values on cell cycle progression. The cell aliquots were collected, and FACS analyses were used to detect the effects of cell treatments with the selected compounds (2, 4, and 5). A propidium iodide staining assay was performed.
The changes in the cell cycle distribution in % (G1, S, and G2 phases), based on the graphical figures A–C, were calculated and are given in Table 4.
The cells were trypsinized, suspended in medium + 10% FCS, and centrifuged (1000 rpm, 5 min); then, the pellet was suspended in PBS (1 mL) and fixed with EtOH. The cells were suspended in 2.5 mL pre-cold 70% EtOH and incubated on ice for 15 min. The staining procedure was as follows: the pellet was suspended in a 500 μL PI-solution in PBS and 0.1 mg/mL RNase A, and 0.05% Triton X-100 was added. After incubation for 10 min at 37 °C, the cells were transferred to the flow cytometer and cell fluorescence was measured. The samples were measured by flow cytometry (LSR II, BD Biosciences, Franklin Lakes, NJ, USA) and analyzed using BD FACS DIVA software v. 6.1.3 (BD Biosciences).

[3] = BALB 3T3, irradiated 2.4 J/cm^2 (PC50), read-out: IC50 of Mean ± SD, Phototoxicity
[4] = BALB 3T3, irradiated, value in brackets, read-out: IC50, Phototoxicity (converted)

Row | SMILES | IC50 (BALB 3T3 cells [1]) | IC50 (BALB 3T3 cells [2]; [3]) | IC50 (BALB 3T3 cells [2]; [4]) | change of %G1 vs control, MCF-10A (MCF-10A) | change of %G2 vs control, MCF-10A (MCF-10A) | change of %S vs control, MCF-10A (MCF-10A) | %G1, MCF-10A (MCF-10A) | %G2, MCF-10A (MCF-10A) | %S, MCF-10A (MCF-10A) | IC50 of Mean ± SD, Cytotoxicity (BALB 3T3 cells [1]; BALB 3T3, 24 h, NRU, no irradiation (CC50)) | PIF (photo-irritancy factor) (BALB 3T3 cells [2])
1 | CCOC(=O)Cc1nc(N)c2c(C)c(C(=O)OCC)sc2n1 [Compound 2, Ethyl 4-Amino-2-(2-Ethoxy-2-Oxoethyl)-5-Methylthieno[2,3-d]Pyrimidine-6-Carboxylate] | 5.4 mM | 1080 ± 117 µg/mL | 3.3 mM | +5.439% | −6.42% | −20.8% | 85.9% | 6.55% | 7.328% |  | 
2 | CCOC(=O)c1sc2nc(CC)nc(N)c2c1C [Compound 4, Ethyl 4-Amino-2-Ethyl-5-Methylthieno[2,3-d]Pyrimidine-6-Carboxylate] | 6.4 mM | 2110 ± 122 µg/mL | 8 mM | +4.9% | +15.4% | −29.0% | 85.5% | 8.108% | 6.53% | 1678 ± 70.4 µg/mL | 1.2
3 | CCOC(=O)c1sc2nc(C)nc(N)c2c1C [Compound 5, Ethyl 4-Amino-2,5-Dimethyl-Thieno[2,3-d]Pyrimidine-6-Carboxylate] |  | 2350 ± 114 µg/mL | 9.4 mM | +5.52% | +24.657% | −13.9% | 86% | 8.72% | 7.92% |  | 1.2
